The values below come from PMC5648829 (Scientific Reports, 2017).

Usually IC50 stands for the midpoint of a concentration-inhibition curve.

Several values for one entry are separate records, joined by “and”; a condition that tells them apart may be missing. Identical values can stand only once. Where a SMILES comes first, the peptide text is derived from it.

Series [1] deals with T1, LTA4H (Homo sapiens, UniProt P09960).
T1 sequence (P09960 1-611): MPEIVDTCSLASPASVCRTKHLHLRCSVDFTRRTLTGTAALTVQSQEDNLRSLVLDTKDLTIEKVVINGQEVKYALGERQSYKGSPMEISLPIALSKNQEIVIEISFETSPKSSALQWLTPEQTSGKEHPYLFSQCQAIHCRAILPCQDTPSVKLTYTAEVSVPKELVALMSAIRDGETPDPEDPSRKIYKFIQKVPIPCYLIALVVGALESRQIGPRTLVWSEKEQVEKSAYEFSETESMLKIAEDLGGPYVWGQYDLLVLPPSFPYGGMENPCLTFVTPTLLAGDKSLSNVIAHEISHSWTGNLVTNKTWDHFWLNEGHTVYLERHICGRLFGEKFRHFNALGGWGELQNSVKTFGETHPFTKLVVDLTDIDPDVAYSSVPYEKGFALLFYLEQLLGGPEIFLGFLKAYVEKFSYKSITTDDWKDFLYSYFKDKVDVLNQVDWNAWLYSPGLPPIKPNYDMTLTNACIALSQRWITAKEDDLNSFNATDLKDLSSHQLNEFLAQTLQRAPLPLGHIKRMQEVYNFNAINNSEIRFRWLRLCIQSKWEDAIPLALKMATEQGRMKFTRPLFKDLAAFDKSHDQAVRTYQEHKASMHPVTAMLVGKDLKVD
Kind of series: LTA4H aminopeptidase assay with surrogate substrate Ala-AMC. Type of series: biochemical. Details: Full-length LTA4H containing a N-terminal (His)6-tag; (His)6-tag (N, cleaved yes); (Gly3-Ser)3 spacer (N, cleaved yes); made in house; host or cells: E. coli BL21 (DE3) star. The following applies: for Effect on Ala-AMC hydrolysis: Table 1, whether compound increased or inhibited hydrolysis of Ala-AMC by the enzyme; for IC50: Table 2. On the procedure:
(§1) The LTA4H aminopeptidase assays were run using several surrogate substrates: Arg-Rho110-D-Pro (Arg-Rho, Biosyntan GmbH, Germany) or Arg-AMC (Bachem, Switzerland), Pro-AMC (Bachem, Switzerland) and Ala-AMC (Bachem, Switzerland). Assays were performed at RT in 1536-well plates in Tris buffer, pH 7.2 containing NaCl (100 mM), CaCl2 (2 mM), CHAPS (0.5%) and BSA (0.1%). […] The reaction was incubated between 1–2 h (depending on substrate) prior to reading the increase in fluorescence on an EnVision.

For series [2], the target named is T1, LTA4H. Kind of series: PGP peptidolysis assay by LC-MS/MS. Type of series: biochemical. Details: Full-length LTA4H containing a N-terminal (His)6-tag; (His)6-tag (N, cleaved yes); (Gly3-Ser)3 spacer (N, cleaved yes); made in house; host or cells: E. coli BL21 (DE3) star. As for the experimental part:
The aminopeptidase activity of LTA4H was assessed with H-PGP-OH (Bachem, Switzerland) as substrate. Assays were performed at RT in black 384-well low volume plates (Greiner) and analyzed by LC-MS/MS. All compounds were tested as 8 point dose response curves in triplicates included on every plate. 3 µl of compound diluted in assay buffer (Tris (50 mM), NaCl (150 mM), CaCl2 (10 mM) at pH7.5) was transferred to the plate followed by 3 µl of enzyme solution (20 nM LTA4H in assay buffer). The enzyme compound mixture was incubated at room temperature for 15 min prior to the addition of 6 µl substrate solution (800 µM PGP in assay buffer). Upon addition of the substrate, the plate was placed on a shaker at 25 °C for 40 min. The reaction was stopped by addition of 12 µl formic acid (0.2% v/v). The final concentration of the enzyme in the assay was 5 nM, the PGP 400 µM and the compound concentration range was from 50000 nM to 3.2 nM. For peptide quantification, an HPLC instrument from Agilent Series 1290 (binary high pressure gradient system) with detectors UV, fluorescence and mass (single Quad) detectors was used. HPLC was done using an Atlantis T3 column (C18 100 × 2.1mm, […], 100 Å) with A: water (MQ) + 0.1% formic acid and B: acetonitrile + 0.1% formic acid: 0–0.3 min 0% buffer B, then increased to 100% buffer B at 0.31–0.65 min and again decreased to 0% buffer B at 0.66–0.70 min. Flow was set to 1.5 ml/min with start gradient pressure of 400 bar.

In series [3] the target is T1, LTA4H. Put plainly: LTA4H aminopeptidase assay with surrogate substrate Arg-AMC. Type of series: biochemical. Details: Full-length LTA4H containing a N-terminal (His)6-tag; (His)6-tag (N, cleaved yes); (Gly3-Ser)3 spacer (N, cleaved yes); made in house; host or cells: E. coli BL21 (DE3) star. On the procedure:
as §1

In series [4] the target is T1, LTA4H. Put plainly: LTA4H aminopeptidase assay with surrogate substrate Pro-AMC. Type of series: biochemical. Details: Full-length LTA4H containing a N-terminal (His)6-tag; (His)6-tag (N, cleaved yes); (Gly3-Ser)3 spacer (N, cleaved yes); made in house; host or cells: E. coli BL21 (DE3) star. On the procedure:
as §1

A short description of series [5]: PGP degradation assay in BALF ex-vivo (LC-MS/MS). Type of series: in vitro ADME, mouse. The following applies: BALF of wt and LTA4H-KO mice, 24 h at 37 °C, compared with PBS. On the procedure: 200 µl of BALF were spiked with PGP and Ac-PGP at the final concentration of 10 nM. […] After incubation, samples were filtered (Amicon Ultra-0.5, Membrane Ultracel-30, PMNL 30 kD) by centrifugation (3 min at 10,000 × g). Filtered samples were transferred to vials for liquid chromatography tandem mass spectrometry (LC-MS/MS) analysis. The LC system consisted of an Acquity UPLC I-Class interfaced with a Xevo-TQS triple quadruple MS (Waters). […] PGP was monitored with MRM m/z transitions of 270.1 > 173.1 (quantifier) and 270.1 > 70.1 and 270.1 > 116.1 (qualifiers). Ac-PGP was monitored with m/z transitions of 312.2 > 112.1 (quantifier) and 312.2 > 116.1 and 312.2 > 140.1 (qualifiers).

The subject of series [6] is human neutrophils. Put plainly: Human neutrophil shape change assay. Type of series: cell-based. The following applies: isolated human neutrophils. As for the experimental part: Neutrophils were purified by Ficoll density gradient centrifugation from human blood and incubated with graded concentrations of PGP, Ac-PGP or the known neutrophil chemoattractant GROα in assay buffer containing BSA (0.1%) in PBS for 10 min at 37 °C, 5% CO2 and 90% humidity. Cells were then fixed and shape change analyzed by flow cytometry.

Series [7] concerns human neutrophils. Put plainly: Human neutrophil chemotaxis assay. It counts as cell-based. As for the experimental part: Purified human neutrophils were labeled with calcein-AM (Fluka, Buchs, Switzerland). Test compounds (PGP, Ac-PGP, RTR, and Ac-RTR) or IL-8 (Sigma) as positive chemoattractant control were diluted in RPMI containing BSA (0.1%) and added at graded concentrations into the wells of a 96-well ChemoTX plate (3.2 mm diameter, 5 µm pore size; NeuroProbe, Gaithersburg, MD). Labeled cells (50,000 per well) were added onto the filters above the wells that received the test compounds. Plates were incubated for 90 min at 37 °C. The filters were removed and fluorescence in the receiving wells was measured using a SpectraMAX Gemini EM instrument (Molecular Devices, Sunnyvale, CA; λex = 485 nm; λem = 538 nm). The chemotactic index was measured as the ratio of fluorescence in the test wells and in control (buffer only) wells.

The mark [8] stands for this setting: Table 1, average of minimum two biological replicates, read-out: IC50 Arg-AMC.
The mark [9] stands for this setting: Table 1, read-out: IC50 Pro-AMC.
Where [10] appears, read: Table 2, read-out: IC50 Arg-AMC.
Setting [11] is: Table 2, read-out: IC50 Pro-AMC.

`COc1ccc(Cc2ccccc2)cc1` [4-MDM, 4-Methoxydiphenylmethane, reference compound]: the “Effect on Ala-AMC hydrolysis” value on LTA4H [1] is on record as “increase”. Moreover, the “Ratio IC50 PGP/Arg-AMC” value on LTA4H [2] (Table 1) is reported as 0.42. For the same compound, the IC50 at LTA4H [2] (Table 1, read-out: IC50 PGP) was determined as 4220 nM; at LTA4H [3] (setting [8]), 10100 nM; at LTA4H [4] (setting [9]), 33600 nM.
On the same counts, the results for `Nc1nc(-c2ccc(Cc3ccccc3)cc2)cs1` [ARM-1, 4-(4-benzylphenyl) thiazol-2-amine, reference compound] are “increase”, 0.40, 390 nM, 970 nM and 1030 nM.
As for `CC(=O)N1CCC[C@H]1C(=O)NCC(=O)N1CCC[C@H]1C(=O)O` [Ac-PGP, N-acetly-Pro-Gly-Pro] (Ac-Pro-Gly-Pro-OH), the “Ac-PGP stability in exudates” value in series [5] is “remained as stable over 24 h at 37 °C as in PBS”.
With `c1ccc(Cc2ccc(-c3c[nH]cn3)cc2)cc1` [Compound 2, 4-(4-benzylphenyl)-1H-imidazole], on LTA4H [1], the “Effect on Ala-AMC hydrolysis” value is listed as “increase”. Also, the “Ratio IC50 PGP/Arg-AMC” value on LTA4H [2] (Table 1) came out at 1.4. Moreover, the IC50 on LTA4H [2] (Table 1, read-out: IC50 PGP) worked out at 380 nM; on LTA4H [3] (setting [8]), 270 nM; at LTA4H [4] (setting [9]), 280 nM.
As for `c1ccc(Oc2ccc(-c3c[nH]cn3)cc2)cc1` [Compound 6, 5-(4-phenoxyphenyl)-1H-imidazole], the IC50 at LTA4H [2] amounted to 45 nM; against LTA4H [3], 64 nM; on LTA4H [4], 77 nM.
Regarding `Cn1cnc(-c2ccc(Oc3ccccc3)cc2)c1` [Compound 7, 1-methyl-4-(4-phenoxyphenyl)-1H-imidazole], the “Effect on Ala-AMC hydrolysis” value at LTA4H [1] was “increase”. The “Ratio IC50 PGP/Arg-AMC” value on LTA4H [2] (Table 1) amounted to 0.49. Also, the IC50 came out at 1400 nM at LTA4H [2] (Table 1, read-out: IC50 PGP); 2870 nM at LTA4H [3] (setting [8]); 1690 nM on LTA4H [4] (setting [9]).
In the same order, the values of `Oc1cc(-c2ccc(Oc3ccccc3)cc2)n[nH]1` [Compound 8, 3-(4-phenoxyphenyl)-1H-pyrazol-5-ol] are “increase”, 1.44, 1870 nM, 1300 nM and 1350 nM.
Regarding `c1ccc(Oc2ccc(-c3cc[nH]c3)cc2)cc1` [Compound 9, 3-(4-phenoxyphenyl)-1H-pyrrole], at LTA4H [1], the “Effect on Ala-AMC hydrolysis” value is recorded as “increase”. For the same compound, the “Ratio IC50 PGP/Arg-AMC” value on LTA4H [2] (Table 1) is reported as 0.07. Also, the half-maximal inhibitory concentration (IC50) amounted to 35 nM on LTA4H [2] (Table 1, read-out: IC50 PGP); 480 nM on LTA4H [3] (setting [8]); 470 nM at LTA4H [4] (setting [9]).
Take `OCc1ccc(Oc2nc3ccccc3s2)cc1` [Compound 14]: the IC50 on LTA4H [1] is greater than 25000 nM; on LTA4H [2] (Table 2, read-out: IC50 PGP), 76 nM; on LTA4H [3] (setting [10]), 225 nM; at LTA4H [4] (setting [11]), 152 nM. On LTA4H [2] (Table 2, fold selectivity), the “Ratio IC50 PGP/Arg-AMC” value was determined as 0.34.
As for `O=Cc1ncc(Oc2nc3ccccc3s2)cn1` [Compound 16], the IC50 at LTA4H [1] is greater than 25000 nM; at LTA4H [2] (Table 2, read-out: IC50 PGP) it was 11200 nM; at LTA4H [3] (setting [10]), 2580 nM; at LTA4H [4] (setting [11]), 15700 nM.
Take `O=Cc1ccc(Oc2nc3ncccc3s2)cn1` [Compound 17, 5-(thiazolo[4,5-b]pyridin-2-yloxy)picolinaldehyde]: the IC50 was determined as 550 nM against LTA4H [1]; 1110 nM at LTA4H [2] (Table 2, read-out: IC50 PGP); 82 nM on LTA4H [3] (setting [10]); 560 nM on LTA4H [4] (setting [11]). The “Ratio IC50 PGP/Arg-AMC” value on LTA4H [2] (Table 2, fold selectivity) is 14 and 13.5.
For the compound “GROα: known chemokine and neutrophil chemoattractant”, in the series on human neutrophils [6], the “ED50 neutrophil shape change” value is on record as “approximately 0.2 nM”.
For the compound IL-8: positive chemoattractant control, in the series on human neutrophils [7] (concentration as low as 10 nM), the neutrophil chemotaxis entry is on record as “substantial chemotaxis”.
Take arginine-threonine-arginine [RTR]: the neutrophil chemotaxis result in the series with human neutrophils [7] (graded concentrations up to mM range, 90 min at 37 °C) was “entirely negative”.
